# pIC50: −log10 of the molar value.
# Test system: P. falciparum 3D7 growth, pLDH absorbance
# Experiment: blood-stage malaria parasite growth potency – strain 3D7, dose response (AID 2305)
row,SMILES,pIC50
1,O=C(CCCCCNC(=O)c1ccc(O)c(-c2ccc(Cl)c(Cl)c2)c1)NCCN1CCCCC1,6.05
2,COc1cccc(CNC(=O)NC2CCN(c3ccnc(Nc4cc(OC)c(OC)c(OC)c4)n3)C2)c1 (configuration not stated),6.15
3,O=C(CSc1nccn1C1CCCCC1)Nc1cc(C(F)(F)F)ccc1Cl,6.40
4,CC(C)(C)C(=O)Nc1ccccc1Oc1ccc(Cl)cc1,8.00
5,COc1ccc(N2CCN(c3nc(Nc4ccc(NC(C)=O)cc4)nc(N4CCCC4)n3)CC2)cc1,6.01
6,Cc1ccc2c(NC(=O)Nc3ccc(N(C)C)cc3)cc(C)nc2c1,6.09
7,NS(=O)(=O)c1cccc(Br)c1,6.05
8,CC(C)[C@H](NC(=O)c1ccc(O)c(-c2cccc(C(F)(F)F)c2)c1)C(=O)NC1CCCc2ccccc21 (some centres not stated),6.03
9,Cc1cc(NC(=O)c2cccs2)ccc1OC1CCN(Cc2ccc(F)cc2)CC1,6.32
10,CCCCN(CCCC)CCCN(CCCN(CCCC)CCCC)c1cc(C)nc(Nc2ccc3cc(Br)ccc3c2)n1,6.49
11,NC(=O)c1ccc(-n2cnc3cc(F)ccc32)cc1OCc1ccccc1C(F)(F)F (tested in a mixture with another compound),6.44
12,O=C(Nc1cccc(CN2CCCN(Cc3cccc(O)c3)CC2)c1)c1ccc2ccccc2c1,6.10
13,COc1ccccc1-c1csc(C(=O)NCC2CCN(Cc3ccc(C(C)C)cc3)C2)c1 (configuration not stated),5.87
14,CNCCNCc1ccc(-c2cccc(-c3nc4ccc(F)cc4[nH]3)c2)cc1,5.95
15,O=C(c1cccc(-c2cccc(-c3nc4ccc(F)cc4[nH]3)c2)c1)N1CCCCC1CN1CCC(O)C1 (configuration not stated),6.06
16,COc1ccccc1C1CCN(C2CCC(NC(=O)/C=C/c3ccc(F)c(F)c3)CC2)CC1 (configuration not stated),5.88
17,COC(=O)c1ccc(CC(C)NCC(O)c2cccc(Cl)c2Cl)cc1 (configuration not stated),6.26
18,O=C(Cn1nc(Br)nc1[N+](=O)[O-])NCC1CCCCC1,5.96
19,Cc1ccccc1C1CCN(C2CCC(NC(=O)c3csc(-c4cccc(Cl)c4)n3)CC2)CC1 (configuration not stated),5.94
20,CN(C)CC(=O)Nc1cccc(Nc2nccc(NCC(O)c3ccccc3)n2)c1 (configuration not stated),6.01
21,O=C(Nc1cccc(-c2ccc(-c3nc4ccccc4[nH]3)s2)c1)c1ccncc1,6.11
22,CN(C)c1ccc(CN2CCC(NC(=O)c3ccc(-c4cccc(Cl)c4)s3)CC2)cc1,6.04
23,CN(C)CCn1cc(C(=O)c2cc(Cl)ccc2O)cc1-c1nc2ccccc2c(=O)[nH]1,6.20
24,O=c1cc(NCCCNCc2sc(Br)nc2Br)[nH]c2ccccc12,6.06
25,CN(C)CCn1c(=N)n(CC(O)c2ccc(Cl)c(Cl)c2)c2ccccc21 (configuration not stated),6.10

row,SMILES,pIC50
1,CCN(CC)CCN(Cc1ccc(-c2ccc(C(F)(F)F)cc2)cc1)C(=O)CN1C(CCc2cccc(F)c2F)=NS(=O)(=O)c2ccccc21,6.62
2,CC(=O)c1sc(Cc2nc3ccccc3s2)nc1C,5.97
3,CCN(CC)CCN(Cc1ccc(-c2ccc(C(F)(F)F)cc2)cc1)C(=O)Cn1c(CCc2cccc(F)c2F)nc(=O)c2cccnc21,6.14
4,Oc1ccc(CCCNc2nc(NCc3cccc4ccccc34)nc(NC3CCNCC3)n2)cc1,5.95
5,CN(C)CC(=O)Nc1ccc(Nc2nccc(NCC(O)c3ccccc3)n2)cc1 (configuration not stated),6.01
6,COc1ccc(Nc2cc(C)c3cc(NC(=O)c4ccncc4)ccc3n2)cc1,6.04
7,Cc1nnc2c(NC(=O)NC3CCCC3)cc3ccc(-c4cccc(CN(C)C)c4)cc3n12,5.94
8,CC(C)C1=C[C@H]2C[C@]3(C4OCCO4)[C@@H]4CC[C@@H](C)[C@H]4C[C@@]2(C(=O)OCC2COCO2)[C@]13C(=O)OC(c1ccccc1)c1ccccc1 (some centres not stated),6.07
9,COCCNCc1ccc(-c2ccc3c(Nc4ccc(F)cc4Cl)ccnc3c2)o1,6.68
10,c1ccc2c(c1)cc(CNCCCN1CCN(CCCNCc3cc4ccccc4c4ccccc34)CC1)c1ccccc12,6.70
11,O=C(NC1CCN(Cc2ccc3c(c2)OCCO3)CC1)c1ccc(-c2cccc(C(F)(F)F)c2)s1,5.74
12,N#Cc1ccc(C=Cc2nccc3c2[nH]c2ccccc23)cc1,6.19
13,CCN(CC)S(=O)(=O)c1ccc(CCOCCCCCNCC(O)c2cc(Cl)c(N)c(Cl)c2)s1 (configuration not stated),6.07
14,c1cc(C2=N[C@H]3CCCC[C@@H]3N2)ccc1OCCCOc1ccc(C2=N[C@@H]3CCCC[C@H]3N2)cc1,6.14
15,CC1CCC(C[C@@H](C(=O)N[C@H](C(=O)Nc2nccs2)[C@@H](C)O)[C@H](CCC(F)(F)F)N(O)C=O)CC1 (some centres not stated),6.27
16,c1cc(CNCC2CCCO2)cc(-c2ccc(-c3nc4ccccc4[nH]3)s2)c1 (configuration not stated),5.93
17,Cc1cc(Cl)c(S(=O)(=O)NC(C)(C)C)cc1OCC(=O)NC1CCCCC1,6.26
18,O=c1cc(NCCCNCc2ccc(Cl)c(Cl)c2)[nH]c2ccc(Cl)cc12,6.47
19,CC(C)Nc1nc(NCCc2cnc[nH]2)nc(Nc2ccc(Oc3ccccc3)cc2)n1,6.05
20,CC(C)c1cc(Oc2c(I)cc(CCCc3ncc[nH]3)cc2I)ccc1O,5.95
21,COc1ccc(-c2cnc3ccc(NCc4ccc(F)cc4)nn23)cc1OC,6.08
22,O=C(NCCCCN1CCC(c2c[nH]c3ccccc23)CC1)c1sc(-c2ccc(C(F)(F)F)cc2)nc1CO,5.92
23,CC(C)CCn1c(Sc2ccc(C#N)c([N+](=O)[O-])c2)nnc1-c1cccc(Cl)c1,6.17
24,COc1ccc2c(NN=Cc3ccncc3)ccnc2c1,6.02
25,O=C(/C=C/c1cccc(OC(F)(F)F)c1)NCCCCCN1CCC(c2c[nH]c3ccccc23)CC1,6.02

row,SMILES,pIC50
1,COc1ccc(C(=O)N2CCC3(CC2)C(=O)N(CC(=O)NC2CCCCC2)CN3c2ccccc2)c(OC)c1,6.66
2,O=C(NCCCCN1CCC(c2ccc(-c3ccco3)cc2)CC1)c1ccc(NC(=O)c2ccc(Cl)cc2)cc1,6.27
3,Nc1ccc(-c2nc3ccc(Oc4ccc5nc(-c6ccc(N)cc6)[nH]c5c4)cc3[nH]2)cc1,6.14
4,Clc1ccc2c(NN=Cc3ccco3)ccnc2c1,5.96
5,Cc1cc(-c2ccc(CN3Cc4ccccc4C3)cc2)ccc1S(=O)(=O)NCCN1CCCC1,6.01
6,COc1ccccc1C(=O)C1CCCN(C(=O)c2ccccc2C(F)(F)F)C1 (configuration not stated),6.22
7,Cc1cccc2[nH]c(-c3cccc(-c4cccc(CNCCNC(=O)c5ccnn5C)c4)c3)nc12,6.72
8,Oc1cc2c(cc1CN1CCN(Cc3ccc(Cl)s3)CC1)CCC2,6.21
9,OCCN1CCN(C2Cc3ccc(F)cc3Sc3ccc(Cl)cc32)CC1 (configuration not stated),6.06
10,CCN(CC)CCOc1ccc(C(O)(C#CC(O)(c2ccc(C)cc2)c2ccc(OCCN(CC)CC)cc2)c2ccc(C)cc2)cc1 (configuration not stated),6.05
11,CCn1c(C2CCN(CCC3CCN(C(=O)/C=C/c4ccc(Cl)c(Cl)c4)CC3)CC2)nc2ccccc21,5.97
12,Cc1[nH]c2ccccc2c1C1CCN(CC2CCC(NC(=O)/C=C/c3ccc(Cl)c(Cl)c3)CC2)CC1 (configuration not stated),6.09
13,CCCN1CCN(CCNC(=O)c2cccc(Nc3nccc(Nc4ccc(Oc5ccccc5)cc4)n3)c2)CC1,6.62
14,CCCCc1cc(NCc2ccncc2)nc(Nc2cccc(OC)c2)n1,6.13
15,CCCCn1c(=N)c(C(=O)NCc2cccnc2)cc2c(=O)n3cccc(C)c3nc21,6.13
16,CCCc1cn2c3c(cc(C(=O)N[C@@H](Cc4ccccc4)[C@H](O)CNC4CCCCC4)cc13)N(C)S(=O)(=O)CC2,7.15
17,O=C(Nc1cccc(C(F)(F)F)c1)c1cccc(S(=O)(=O)NCC2CCCN(CC3CCCCC3)C2)c1 (configuration not stated),6.06
18,COc1ccccc1CCNC(=O)c1cnc(N2CCN(c3ccncc3)CC2)c(Cl)c1,5.94
19,Nc1ncc(-c2ccccc2)cc1-c1nc2cc(Cl)c(F)cc2[nH]1,6.59
20,O=C(Nc1ccc([N+](=O)[O-])cc1)c1nn(-c2ccccc2)cc1N=Cc1cccc(O)c1,6.05
21,O=C(NCCCNc1nc2ccccc2[nH]1)c1cccc(OC(F)(F)F)c1,6.24
22,COc1ccc(F)cc1-c1cccc(CNC2CCN(CC3Cn4c(=O)ccc5ccc(F)c3c54)CC2)c1 (configuration not stated),6.08
23,Cc1cc(CN2C(=O)C(c3ccccc3)(c3ccccc3)N=C2N)c(C(F)(F)F)o1,6.02
24,Cc1[nH]c(C)c(-c2cc3ccccc3o2)c(=O)c1Cl,5.76
25,COc1ccc2nccc([C@@H](O)CN3CCC(NCc4ccc5scnc5c4)CC3)c2c1,6.40

row,SMILES,pIC50
1,CC(C)N1CCN(C(CN2CCN(CCCOc3cccc(F)c3)CC2)c2ccc(F)cc2)CC1 (configuration not stated),6.04
2,Nc1nc2c(ncn2OC[C@H](CO)OCP(=O)(O)O)c(=O)[nH]1,6.47
3,CCCCCOc1ccc(N2C(N)=NC(N)=NC2(C)C)cc1,6.70
4,CNCCCCCCc1ccc(CC(C)NCC(O)c2cccc(Cl)c2)cc1 (configuration not stated),6.07
5,CCCCN1CCN(CC(O)CNC(=O)Nc2ccc(Cl)cc2)CC1 (configuration not stated),7.15
6,CNC(=O)c1cnc(Nc2ccc(N3CCN(C)CC3)cc2)nc1Nc1cccc([N+](=O)[O-])c1,6.54
7,O=S(=O)(Nc1cccc(CCN2CCC(N3CCCCC3)CC2)c1)c1ccccc1C(F)(F)F,5.94
8,c1cc(CN2CCCCC2)cc(-c2ccc(-c3nc4ccccc4[nH]3)cc2)c1,6.05
9,Cc1cc(NC(=O)[C@@H](Nc2ccc(C#N)c3ccccc23)C2CCCCC2)ccc1F,6.05
10,COc1ccc(OC)c(NC(=O)CSc2nc(-c3ccccc3Cl)ns2)c1,6.08
11,O=C(NCc1ccc(C(=O)NC2CCCCC2)cc1)c1ccc(O)c(-c2ccc(Cl)c(Cl)c2)c1,6.06
12,FC(F)(F)c1ccc2nc(-c3cccc(-c4cccc(CNCC5CCCO5)c4)c3)[nH]c2c1 (configuration not stated),6.38
13,Cc1ccc2cc(C3NC(=O)c4ccccc4N3)c(Cl)nc2c1 (configuration not stated),6.03
14,O=C(NCCCN1CCC(N2CCCCC2)CC1)c1ccc(N2CCOc3ccccc32)s1,6.14
15,Cc1ccc(F)c(C(=O)Nc2cccc(-c3nn4ccccc4c3-c3ccnc(Nc4cccc(F)c4)n3)c2)c1F,5.98
16,O=C(C=Cc1ccc(Cl)c(Cl)c1)NCCCCCN1CCC(CCCNS(=O)(=O)c2ccc(Br)cc2)CC1,5.95
17,O=C1OC(c2ccccc2)(c2ccccc2)CN1CC1CCN(Cc2ccc(O)c(Cl)c2)CC1,6.09
18,COc1cc(F)c2ncc(Cl)c([C@@H](O)CN3CCC(NCc4cc5c(cn4)OCCO5)CC3)c2c1,7.00
19,Brc1cccc(Nc2nccc(Nc3ccc(Oc4ccccc4)cc3)n2)c1,6.00
20,Cc1cccc(-n2c(Nc3ccc(C)c(Cl)c3)nc3ccc(S(=O)(=O)NC(C)C(C)C)cc32)c1 (configuration not stated),6.19
21,N#Cc1cc(C(=O)c2cc(Cl)ccc2O)cn(-c2cccc(C(F)(F)F)c2)c1=O,5.95
22,Cc1nc(NCCc2cnc[nH]2)cc(NCc2ccccc2)n1,6.08

# Source: PubChem BioAssay AID2305 (GlaxoSmithKline (GSK), 2010)
